# Tested on: HEK293 cells
# Experiment: Preliminary screening as mRNA vectors, EGFP mRNA transfection of HEK293 cells
# Format: cell-based
# Conditions: EGFP mRNA 50 ng per well, 96-well plates; percentage of GFP fluorescent cells relative to total number of cells (Hoechst)
# Procedure, shortened: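 HEK293 cells in DMEM plus 10% FBS transfected in 96-well format with 50 ng EGFP mRNA per well; Lipofectamine2000 served as positive control. Read-out is the percentage of GFP-fluorescent cells among total cells, counted by Hoechst nuclear stain.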
row,SMILES,Absolute mRNA transfection efficiency in HEK293 cells [%]
1,CCCCCCCCCCCCCCCCCCSc1nc(NCCCCCCCCCCC)nc(NCCN2CCOCC2)n1 [Compound D2S18N11],0.5
2,CCCCCCCCNc1nc(NCC2CCN(C)CC2)nc(SCCCCCCCC)n1 [Compound D10S8N8],1.2
3,CCCCCCCCCCCCCCCSc1nc(NCCCCCC)nc(NCCCN2CCOCC2)n1 [Compound D8S15N6],3.5
4,CCCCCCCCCCCCCCCCSc1nc(NCCCN(C)C)nc(N(CCCCCCCCCCCC)CCCCCCCCCCCC)n1 [D6S16^2N12],1.0
5,CCCCCCCSc1nc(NCCN(C)C)nc(SCCCCCC)n1 [Compound D1S6S7],1.0
6,CCCCCCCCCCCCN(CCCCCCCCCCCC)c1nc(NCCCN2CCN(C)CC2)nc(SCCCCCCCCC)n1 [D9S9^2N12],0.3
7,CCCCCCCCCCCCCCSc1nc(NCCCCCCC)nc(NCCCN(C)C)n1 [Compound D6S14N7],90.8
8,CCCCCCCCCCCCCCCNc1nc(NCCCN(C)C)nc(SCCCCCCC)n1 [Compound D6S7N15],37.9
9,CCCCCCCCCCCCCCCCNc1nc(NCCCN2CCN(C)CC2)nc(SCCCCCC)n1 [Compound D9S6N16],29.6
10,CCCCCCCCCCCCCCSc1nc(NCCCN2CCOCC2)nc(SCCCCCC)n1 [Compound D8S6S14],6.8
11,CCCCCCCCCSc1nc(NCCCCCCC)nc(NCCN2CCCC2)n1 [Compound D3S9N7],1.4
12,CCCCCCCCCCSc1nc(NCCCCCCCCC)nc(NCCN(C)C)n1 [Compound D1S10N9],0.5
13,CCCCCCCCCCCCCCCCCCSc1nc(NCCN2CCN(C)CC2)nc(SCCCCCC)n1 [Compound D5S6S18],55.1
14,CCCCCCCCCCCCCCCCCCNc1nc(NCCN2CCN(C)CC2)nc(SCCCCCCCCCCCCCCCC)n1 [Compound D5S16N18],0.2
15,CCCCCCCCCCCCCCCCNc1nc(NCCN2CCN(C)CC2)nc(SCCCCCCCCCCC)n1 [Compound D5S11N16],3.9
16,CCCCCCCCCCCCSc1nc(NCCN2CCOCC2)nc(SCCCCCCC)n1 [Compound D2S7S12],19.2
17,CCCCCCSc1nc(NCCN(C)C)nc(SCCCCCC)n1 [Compound D1S6S6],0.7
18,CCCCCCCCCCSc1nc(NCCCCCCC)nc(NCCCN2CCN(C)CC2)n1 [Compound D9S10N7],0.8
19,CCCCCCCCCCCCN(CCCCCCCCCCCC)c1nc(NCC2CCN(C)CC2)nc(SCCCCCCC)n1 [D10S7^2N12],1.4
20,CCCCCCCCCCCCCNc1nc(NCCCN(C)C)nc(SCCCCCC)n1 [Compound D6S6N13],3.0
21,CCCCCCCCCCCCCNc1nc(NCC2CCN(C)CC2)nc(SCCCCCCCCCCC)n1 [Compound D10S11N13],10.4
22,CCCCCCCCCCCCCCCNc1nc(NCC2CCN(C)CC2)nc(SCCCCCC)n1 [Compound D10S6N15],7.9
23,CCCCCCCCCCCCCCCSc1nc(NCCCCCCCCCCCC)nc(NCCN2CCCCC2)n1 [Compound D4S15N12],1.6

row,SMILES,Absolute mRNA transfection efficiency in HEK293 cells [%]
1,CCCCCCCCCCCCCCCCCCSc1nc(NCCCCCC)nc(NCCCN2CCOCC2)n1 [Compound D8S18N6],1.0
2,CCCCCCCCCCCCCNc1nc(NCCCN2CCOCC2)nc(SCCCCCC)n1 [Compound D8S6N13],0.0
3,CCCCCCCCCCCCCCSc1nc(NCCN2CCCC2)nc(N(CCCCCCCCCCCC)CCCCCCCCCCCC)n1 [D3S14^2N12],0.2
4,CCCCCCCCCCCCCCCCNc1nc(NCCN2CCN(C)CC2)nc(SCCCCCCCCCC)n1 [Compound D5S10N16],3.9
5,CCCCCCCCCCCCN(CCCCCCCCCCCC)c1nc(NCCN2CCN(C)CC2)nc(SCCCCCCCCCC)n1 [D5S10^2N12],0.1
6,CCCCCCCCCCCCCCCNc1nc(NCCN2CCCCC2)nc(SCCCCCCC)n1 [Compound D4S7N15],2.6
7,CCCCCCCCCCCCCCCSc1nc(NCCN2CCOCC2)nc(SCCCCCC)n1 [Compound D2S6S15],6.9
8,CCCCCCCCCCCCCCCNc1nc(NCCN(CC)CC)nc(SCCCCCCCCCCC)n1 [Compound D7S11N15],6.5
9,CCCCCCCCCCCCSc1nc(NCCN2CCN(C)CC2)nc(SCCCCCCC)n1 [Compound D5S7S12],48.8
10,CCCCCCCCCCCCNc1nc(NCCN2CCOCC2)nc(SCCCCCC)n1 [Compound D2S6N12],0.8
11,CCCCCCCCCCCSc1nc(NCCCCCCCC)nc(NCCCN2CCN(C)CC2)n1 [Compound D9S11N8],37.6
12,CCCCCCCCCCCCCCCCCCSc1nc(NCCCCCCCC)nc(NCCCN(C)C)n1 [Compound D6S18N8],74.5
13,CCCCCCCCCCCCCCCCCCNc1nc(NCCCN2CCOCC2)nc(SCCCCCCCC)n1 [Compound D8S8N18],1.2
14,CCCCCCCCCCCCCCCCNc1nc(NCCCN(C)C)nc(SCCCCCCCCCC)n1 [Compound D6S10N16],51.5
15,CCCCCCCCNc1nc(NCC2CCN(C)CC2)nc(SCCCCCC)n1 [Compound D10S6N8],1.4
16,CCCCCCCCCCCCCCSc1nc(NCCCN2CCOCC2)nc(SCCCCCCC)n1 [Compound D8S7S14],21.2
17,CCCCCCCCSc1nc(NCC2CCN(C)CC2)nc(SCCCCCCCC)n1 [Compound D10S8S8],50.8
18,CCCCCCCCCCCCCCCNc1nc(NCCN2CCCCC2)nc(SCCCCCCCCCCCCCCC)n1 [Compound D4S15N15],3.5
19,CCCCCCCCCCCCSc1nc(NCCN2CCN(C)CC2)nc(SCCCCCCCC)n1 [Compound D5S8S12],47.4
20,CCCCCCCCCCCCCNc1nc(NCCN(C)C)nc(SCCCCCCCCC)n1 [Compound D1S9N13],25.8
21,CCCCCCCCCCCNc1nc(NCCCN2CCOCC2)nc(SCCCCCC)n1 [Compound D8S6N11],1.1
22,CCCCCCCCCCCCCCCCCCNc1nc(NCCN2CCCCC2)nc(SCCCCCCCCCCCCCCCC)n1 [Compound D4S16N18],6.3
23,CCCCCCCCCCSc1nc(NCCN2CCN(C)CC2)nc(SCCCCCCC)n1 [Compound D5S7S10],12.2

row,SMILES,Absolute mRNA transfection efficiency in HEK293 cells [%]
1,CCCCCCCCCSc1nc(NCCCN2CCN(C)CC2)nc(SCCCCCC)n1 [Compound D9S6S9],5.6
2,CCCCCCCCCCCCCCCNc1nc(NCCCN2CCN(C)CC2)nc(SCCCCCC)n1 [Compound D9S6N15],11.9
3,CCCCCCCCCCCCSc1nc(NCCN2CCN(C)CC2)nc(N(CCCCCCCCCCCC)CCCCCCCCCCCC)n1 [D5S12^2N12],1.6
4,CCCCCCSc1nc(NCCN2CCN(C)CC2)nc(SCCCCCC)n1 [Compound D5S6S6],4.3
5,CCCCCCCCCCCCCCCCNc1nc(NCCN(CC)CC)nc(SCCCCCCCC)n1 [Compound D7S8N16],16.8
6,CCCCCCCCCCCCCNc1nc(NCCN(C)C)nc(SCCCCCCCC)n1 [Compound D1S8N13],15.5
7,CCCCCCCCCCCCCCCCCCNc1nc(NCCCN(C)C)nc(SCCCCCCCCCC)n1 [Compound D6S10N18],31.8
8,CCCCCCSc1nc(NCC2CCN(C)CC2)nc(SCCCCCC)n1 [Compound D10S6S6],14.4
9,CCCCCCCCCCCCCCSc1nc(NCCN2CCCCC2)nc(N(CCCCCCCCCCCC)CCCCCCCCCCCC)n1 [D4S14^2N12],0.2
10,CCCCCCCCCCCCCCCSc1nc(NCC2CCN(C)CC2)nc(N(CCCCCCCCCCCC)CCCCCCCCCCCC)n1 [D10S15^2N12],14.3
11,CCCCCCCCCCCCCNc1nc(NCCN(CC)CC)nc(SCCCCCCCCC)n1 [Compound D7S9N13],33.4
12,CCCCCCCCCCCNc1nc(NCCN(CC)CC)nc(SCCCCCCCCC)n1 [Compound D7S9N11],36.8
13,CCCCCCCCCCCCCCCCCCSc1nc(NCCCCCCCCCCCCCCC)nc(NCCCN2CCOCC2)n1 [Compound D8S18N15],0.0
14,CCCCCCCCCCCNc1nc(NCC2CCN(C)CC2)nc(SCCCCCCCCCC)n1 [Compound D10S10N11],8.8
15,CCCCCCCNc1nc(NCCN(CC)CC)nc(SCCCCCCC)n1 [Compound D7S7N7],3.9
16,CCCCCCCCCCCCCCCCNc1nc(NCCN2CCOCC2)nc(SCCCCCCCCCCCCCCCC)n1 [Compound D2S16N16],0.0
17,CCCCCCCCCCCCCCCSc1nc(NCCN2CCCC2)nc(SCCCCCCC)n1 [Compound D3S7S15],12.0
18,CCCCCCCCCSc1nc(NCCN(C)C)nc(SCCCCCC)n1 [Compound D1S6S9],2.3
19,CCCCCCCCCCCCCCCCCCNc1nc(NCCN(C)C)nc(SCCCCCCCCCCCC)n1 [Compound D1S12N18],0.0
20,CCCCCCCCCCCCCCCNc1nc(NCCN(CC)CC)nc(SCCCCCCC)n1 [Compound D7S7N15],18.5
21,CCCCCCCCCCCCCCCCNc1nc(NCCN(C)C)nc(SCCCCCCCCCCCCCCCC)n1 [Compound D1S16N16],0.9

# — patent US20230123334A1, “AMINO LIPID COMPOUND, PREPARATION METHOD THEREFOR, AND APPLICATION THEREOF” (SHENZHEN SHENXIN BIOTECHNOLOGY CO., LTD., priority 2020, published 2023)
